Data published in patent US12480137B2, “Plants having increased tolerance to herbicides” (BASF SE, priority 2014, dated 2025).

Key:
Assay type in all cases: in vivo, Arabidopsis thaliana
[1] = test system: Arabidopsis mutant line Cesa1_G1009D; test: Growth inhibition of Arabidopsis lines in 48-well plates, tolerance factor from IC50; details: growth inhibition seven to ten days after seeding
Excerpt: (§1) For selection of cellulose biosynthesis inhibitor resistant plants EMS mutagenized seed populations of Arabidopsis thaliana are used. EMS mutagenized seed populations are either bought from Lehle Seeds (1102 South Industrial Blvd. Suite D, Round Rock, Texas USA) or are generated as described elsewhere (Heim D R, et. al. (1989) Plant Physiol. 90: 146-150). Causative mutations in CESA wildtype sequences (e.g. SEQ ID NO: 1 or 3) are identified as described by Scheible W R et. al. (2001, Proc. Natl. Acad. of Sci. 98: 10079-10084), McCourt et. al. (WO2013/142968) or with the use of next generation sequencing methods as described by Austin R S, et. al. (2011) Plant Journal 67: 715-725.
(§2) Selected Arabidopsis thaliana lines were assayed for improved resistance to azines like 6-cyclopentyl-N4-(2,3,4,5,6-pentafluorophenyl)-1,3,5-triazine-2,4-diamine; 6-(1-fluoro-1-methyl-ethyl)-N4-(2,3,4,5,6-pentafluorophenyl)-1,3,5-triazine-2,4-diamine; 6-cyclohexyl-N2-(2,3,4,5,6-pentafluorophenyl)-1,3,5-triazine-2,4-diamine; 6-(2,6-difluorophenyl)-N2-(2,3,5,6-tetrafluorophenyl)-1,3,5-triazine-2,4-diamine; N2-(4-chloro-3,5,6-trifluoro-2-pyridyl)-6-(1-fluoro-1-methyl-ethyl)-1,3,5-triazine-2,4-diamine in 48-well plates. Therefore, M2 or M3 seeds are surface sterilized by stirring for 5 min in ethanol+water (70+30 by volume), rinsing one time with ethanol+water (70+30 by volume) and two times with sterile, deionized water. The seeds are resuspended in 0.1% agar dissolved in water (w/v) Four to five seeds per well are plated on solid nutrient medium consisting of half-strength murashige skoog nutrient solution, pH 5.8 (Murashige and Skoog (1962) Physiologia Plantarum 15: 473-497). Compounds are dissolved in dimethylsulfoxid (DMSO) and added to the medium prior solidification (final DMSO concentration 0.1%). Multi well plates are incubated in a growth chamber at 22° C., 75% relative humidity and 110 μmol Phot*m^−2*s^−1 with 14:10 h light:dark photoperiod. Growth inhibition is evaluated seven to ten days after seeding in comparison to wild type plants. Tolerance factors are calculated based on IC50 values of growth inhibition of transformed versus non-transformed Arabidopsis plants (Table 3).

[2] = test system: Arabidopsis mutant line Cesa1_G1013R; test: as above; details: growth inhibition seven to ten days after seeding
Excerpt: as §1, §2

[3] = test system: Arabidopsis mutant line Cesa1_P1010L; test: as above; details: growth inhibition seven to ten days after seeding
Excerpt: as §1, §2

[4] = test system: Arabidopsis mutant line Cesa3_S1037F; test: as above; details: growth inhibition seven to ten days after seeding
Excerpt: as §1, §2

[5] = test system: Arabidopsis mutant line Cesa3_S1040L; test: as above; details: growth inhibition seven to ten days after seeding
Excerpt: as §1, §2

[6] = test system: Arabidopsis mutant line Cesa3_S983F; test: as above; details: growth inhibition seven to ten days after seeding
Excerpt: as §1, §2

[7] = test system: wildtype Arabidopsis plants; test: as above; details: growth inhibition seven to ten days after seeding
Excerpt: as §1, §2

A. thaliana WT L. erecta = test: Greenhouse phytotox, pre-emergent treatment
Method: (§3) Additionally, M2 or M3 Arabidopsis plants are tested for improved tolerance to cellulose biosynthesis-inhibiting herbicides in greenhouse studies (e. g. with the following cellulose biosynthesis-inhibiting herbicides: 6-cyclopentyl-N4-(2,3,4,5,6-pentafluorophenyl)-1,3,5-triazine-2,4-diamine; 6-(1-fluoro-1-methyl-ethyl)-N4-(2,3,4,5,6-pentafluorophenyl)-1,3,5-triazine-2,4-diamine; N4-(4-chloro-3,5,6-trifluoro-2-pyridyl)-6-(1-fluoro-1-methyl-ethyl)-1,3,5-triazine-2,4-diamine; 6-(2,6-difluorophenyl)-N4-(2,3,5,6-tetrafluorophenyl)-1,3,5-triazine-2,4-diamine; N4-(4-bromo-2,3,5,6-tetrafluoro-phenyl)-6-(1-fluoro-1-methyl-ethyl)-1,3,5-triazine-2,4-diamine.

[8] = test system: Cesa1_G1009D, fpx2-3 mutant line; test: Greenhouse phytotox, pre-emergent treatment
Method: as §3

[9] = test system: Cesa1_G1013R, fpx2-1 mutant line; test: Greenhouse phytotox, pre-emergent treatment
Method: as §3

[10] = test system: Cesa1_P1010L, fpx2-2 mutant line; test: Greenhouse phytotox, pre-emergent treatment
Method: as §3

[11] = test system: Cesa3_S1037F, fpx1-2 mutant line; test: Greenhouse phytotox, pre-emergent treatment
Method: as §3

[12] = test system: Cesa3_S1040L, fpx1-1 mutant line; test: Greenhouse phytotox, pre-emergent treatment
Method: as §3

[13] = test system: Cesa3_S983F, fpx1-3 mutant line; test: Greenhouse phytotox, pre-emergent treatment
Method: as §3

SMILES	Relative tolerance rate (wildtype = 1.0) [1]	Relative tolerance rate (wildtype = 1.0) [2]	Relative tolerance rate (wildtype = 1.0) [3]	Relative tolerance rate (wildtype = 1.0) [4]	Relative tolerance rate (wildtype = 1.0) [5]	Relative tolerance rate (wildtype = 1.0) [6]	Relative tolerance rate (wildtype = 1.0) [7]	Phytotox value on a scale from 0-100 (100 is 100% damage) (A. thaliana WT L. erecta; 0.98 g ai/ha)	Phytotox value on a scale from 0-100 (100 is 100% damage) (A. thaliana WT L. erecta; 3.91 g ai/ha)	Phytotox value on a scale from 0-100 (100 is 100% damage) ([8]; 0.98 g ai/ha)	Phytotox value on a scale from 0-100 (100 is 100% damage) ([8]; 3.91 g ai/ha)	Phytotox value on a scale from 0-100 (100 is 100% damage) ([9]; 0.98 g ai/ha)	Phytotox value on a scale from 0-100 (100 is 100% damage) ([9]; 3.91 g ai/ha)	Phytotox value on a scale from 0-100 (100 is 100% damage) ([10]; 0.98 g ai/ha)	Phytotox value on a scale from 0-100 (100 is 100% damage) ([10]; 3.91 g ai/ha)	Phytotox value on a scale from 0-100 (100 is 100% damage) ([11]; 0.98 g ai/ha)	Phytotox value on a scale from 0-100 (100 is 100% damage) ([11]; 3.91 g ai/ha)	Phytotox value on a scale from 0-100 (100 is 100% damage) ([12]; 0.98 g ai/ha)	Phytotox value on a scale from 0-100 (100 is 100% damage) ([12]; 3.91 g ai/ha)	Phytotox value on a scale from 0-100 (100 is 100% damage) ([13]; 0.98 g ai/ha)	also measured
CC(C)(F)c1nc(N)nc(Nc2c(F)c(F)c(F)c(F)c2F)n1 [6-(1-fluoro-1-methyl-ethyl)-N4-(2,3,4,5,6-pentafluorophenyl)-1,3,5-triazine-2,4-diamine]	2	4	1	4	2	1	1	100	100	97	100	63	97	99	100	30	80	75	98	75	Phytotox value on a scale from 0-100 (100 is 100% damage) (A. thaliana WT L. erecta; 0.0625 g ai/ha): 38; Phytotox value on a scale from 0-100 (100 is 100% damage) (A. thaliana WT L. erecta; 0.25 g ai/ha): 78; Phytotox value on a scale from 0-100 (100 is 100% damage) ([8]; 0.0625 g ai/ha): 65; Phytotox value on a scale from 0-100 (100 is 100% damage) ([8]; 0.25 g ai/ha): 78; Phytotox value on a scale from 0-100 (100 is 100% damage) ([9]; 0.0625 g ai/ha): 13; Phytotox value on a scale from 0-100 (100 is 100% damage) ([9]; 0.25 g ai/ha): 65; Phytotox value on a scale from 0-100 (100 is 100% damage) ([10]; 0.0625 g ai/ha): 43; Phytotox value on a scale from 0-100 (100 is 100% damage) ([10]; 0.25 g ai/ha): 50; Phytotox value on a scale from 0-100 (100 is 100% damage) ([11]; 0.0625 g ai/ha): 10; Phytotox value on a scale from 0-100 (100 is 100% damage) ([11]; 0.25 g ai/ha): 20; Phytotox value on a scale from 0-100 (100 is 100% damage) ([12]; 0.0625 g ai/ha): 20; Phytotox value on a scale from 0-100 (100 is 100% damage) ([12]; 0.25 g ai/ha): 65; Phytotox value on a scale from 0-100 (100 is 100% damage) ([13]; 0.0625 g ai/ha): 78; Phytotox value on a scale from 0-100 (100 is 100% damage) ([13]; 0.25 g ai/ha): 45; Phytotox value on a scale from 0-100 (100 is 100% damage) ([13]; 3.91 g ai/ha): 98
Nc1nc(Nc2c(F)c(F)cc(F)c2F)nc(-c2c(F)cccc2F)n1 [6-(2,6-difluorophenyl)-N2-(2,3,5,6-tetrafluorophenyl)-1,3,5-triazine-2,4-diamine]	1	13	2	1	13	1	1	30	70	65	38	15	35	48	35	28	65	13	8	18	Phytotox value on a scale from 0-100 (100 is 100% damage) (A. thaliana WT L. erecta; 15.63 g ai/ha): 90; Phytotox value on a scale from 0-100 (100 is 100% damage) (A. thaliana WT L. erecta; 62.5 g ai/ha): 100; Phytotox value on a scale from 0-100 (100 is 100% damage) ([8]; 15.63 g ai/ha): 18; Phytotox value on a scale from 0-100 (100 is 100% damage) ([8]; 62.5 g ai/ha): 95; Phytotox value on a scale from 0-100 (100 is 100% damage) ([9]; 15.63 g ai/ha): 28; Phytotox value on a scale from 0-100 (100 is 100% damage) ([9]; 62.5 g ai/ha): 40; Phytotox value on a scale from 0-100 (100 is 100% damage) ([10]; 15.63 g ai/ha): 65; Phytotox value on a scale from 0-100 (100 is 100% damage) ([10]; 62.5 g ai/ha): 98; Phytotox value on a scale from 0-100 (100 is 100% damage) ([11]; 15.63 g ai/ha): 73; Phytotox value on a scale from 0-100 (100 is 100% damage) ([11]; 62.5 g ai/ha): 99; Phytotox value on a scale from 0-100 (100 is 100% damage) ([12]; 15.63 g ai/ha): 25; Phytotox value on a scale from 0-100 (100 is 100% damage) ([12]; 62.5 g ai/ha): 28; Phytotox value on a scale from 0-100 (100 is 100% damage) ([13]; 3.91 g ai/ha): 35; Phytotox value on a scale from 0-100 (100 is 100% damage) ([13]; 15.63 g ai/ha): 43; Phytotox value on a scale from 0-100 (100 is 100% damage) ([13]; 62.5 g ai/ha): 33
